# In patent US20120009240A1, “Films for Delivery of a Therapeutic Agent” (priority 2010, published 2012):
# Counter-ions that a name gives are not always drawn.
# Assay: Saturation and payload limits for dip coating a polyester mesh (Parietex monofilament mesh) with bupivacaine HCl solution (FIG. 8)
# Assay type: physicochemical
# Details: polyester mesh without a polymer film
# Description: Further, it is believed that spraying films on a medical device (e.g., mesh) compared to other conventional methods, such as dip coating, provides increased loading of the therapeutic agent.
# More particularly FIG. 8 illustrates the loading limits for a polyester mesh (Parietex™ monofilament mesh) without a polymer film.
smiles,measurement,setting,value
CCCCN1CCCCC1C(=O)Nc1c(C)cccc1C (centres unmarked) [bupivacaine hydrochloride],saturation and payload limits for dip coating,solution in MeOH,12 % w/v
same,saturation and payload limits for dip coating,solution in water,5 % w/v
